Values of other authors in US20040076646A1, “Haptenizing cancer cell components” (priority 2001, published 2004).

Tested on: individuals / adult Americans

urushiol
amount of urushiol sufficient to induce the rash response (some individuals, molecular traces): ≤ 2 µg | proportion of adult Americans who respond (≦50 μg of purified material): 80-90%
